Data: patent US7247641B2, “Compounds, derivatives, compositions, preparation and uses” (MGI GP, Inc., priority 2001, dated 2007)

Tests used:
[1] = test system: ischemia and reperfusion of the heart in rabbits; settings: cited from earlier work
[2] = test system: MSU crystal induced neutrophil migration in Swiss albino mice; test: MSU crystal-induced neutrophil recruitment (peritonitis gout model); type: in vivo, mouse; settings: 6 h
Description: Male outbread Swiss albino mice (20-22 g body weight) were purchased from Banton and Kingsman (T. O. strain; Hull, Humberside) and maintained on a standard chow pellet diet with tap water ad libitum and a 12:00 h light/dark cycle. All animals were housed for 1 week prior to experimentation to allow body weight to reach 28-30 g.
1,11b-dihydrobenzopyrano[4,3,2-de ]isoquinolin-1-one was dissolved in 100% DMSO at room temperature at a concentration of 45 mg in 2 ml. The compound was then injected into the peritoneal cavity, so as each mouse received a single dose corresponding to 45 mg/2 ml/kg (e.g. 60 μl for a mouse of 30 g). Control mice received DMSO at 2 ml/kg i.p. A third group of mice which were left untreated were added to control for potential effects of the vehicle. […]
MSU crystal-induced neutrophil recruitment was tested as follows. […] Peritonitis was induced by injection of 3 mg MSU crystals in 0.5 ml PBS (0.1 M, pH 7.4), and the recruitment of neutrophils into the cavity evaluated at the 6 h time point (Getting et al., 1997, J. Pharmacol. Exp. Ther. 283: 123-130). […]
An aliquot (100 μl) of the lavage fluid was then diluted 1:10 in Turk's solution (0.01% crystal violet in 3% acetic acid). The samples were then vortexed and 10 μl of the stained cell solution were placed in a Neubauer haematocymometer and neutrophils numbers counted using a light microscope (Olympus B061). […]

[3] = test system: focal cerebral ischemia in male Long-Evans rats; test: Focal cerebral ischemia: right distal MCA cauterization with temporary bilateral CCA occlusion; type: in vivo, rat; settings: 24 h, mean±SD
Description: Focal cerebral ischemia is produced by cauterization of the right distal MCA (middle cerebral artery) with bilateral temporary common carotid artery occlusion in male Long-Evans rats for 90 minutes. All procedures performed on the animals are approved by the University Institutional Animal Care and Use Committee of the University of Pennsylvania. A total of 42 rats (weights: 230-340 g) obtained from Charles River were used in this study. The animals fasted overnight with free access to water prior to the surgical procedure.
Two hours prior to MCA occlusion, varying amounts (control, n=14; 5 mg/kg, n=7; 10 mg/kg, n=7; 20 mg/kg, n=7; and 40 mg/kg, n=7) of the compound, 3,4-dihydro-5-[4-(1-piperidinyl)-butoxy]-1(2H)-isoquinolinone (“DPQ”) were dissolved in dimethyl sulfoxide (DMSO) using a sonicator. A volume of 1.28 ml/kg of the resulting solution was injected intraperitoneally into […].
The rats were then anesthetized with halothane (4% for induction and 0.8%-1.2% for the surgical procedure) in a mixture of 70% nitrous oxide and 30% oxygen. The body temperature was monitored by a rectal probe and maintained at 37.5±0.5° C. with a heating blanket regulated by a homeothermiic blanket control unit (Harvard Apparatus Limited, Kent, U.K.). A catheter (PE-50) was placed into the tail artery, and arterial pressure was continuously monitored and recorded on a Grass polygraph recorder (Model 7D, Grass Instruments, Quincy, Mass.). Samples for blood gas analysis (arterial pH, PaO2 and PaCO2) were also taken from the tail artery catheter and measured with a blood gas analyzer (ABL 30, Radiometer, Copenhagen, Denmark). Arterial blood samples were obtained 30 minutes after MCA occlusion.
The head of the animal was positioned in a stereotaxic frame, and a right parietal incision between the right lateral canthus and the external auditory meatus was made. Using a dental drill constantly cooled with saline, a 3 mm burr hole was prepared over the cortex supplied by the right MCA, 4 mm lateral to the sagittal suture and 5 mm caudal to the coronal suture. The dura mater and a thin inner bone layer were kept, care being taken to position the probe over a tissue area devoid of large blood vessels. The flow probe (tip diameter of 1 mm, fiber separation of 0.25 mm) was lowered to the bottom of the cranial burr hole using a micromanipulator. The probe was held stationary by a probe holder secured to the skull with dental cement. The microvascular blood flow in the right parietal cortex was continuously monitored with a laser Doppler flowmeter (FloLab, Moor, Devon, U.K., and Periflux 4001, Perimed, Stockholm, Sweden). […]

PARP = settings: read-out: IC50 for inhibiting PARP; reported by Suto et al.; cited from earlier work

For Oc1cccc2c(O)nccc12 [1,5-dihydroxyisoquinoline], the “reduction in infarct size” value ([1]; single injection 1 mg/kg) is given as 38-48%.

For O=C1N=Cc2cccc3c2C1c1ccccc1O3 (stereo not drawn) [1,11b-dihydrobenzopyrano[4,3,2-de]isoquinolin-1-one], the “Neutrophils, mean ± S.E.” value ([2]; 45 mg/kg i.p. 1 h prior to 3 mg MSU crystals, n=8, vehicle group 6.30 ± 0.33) was 2.85 ± 0.34 (8)* 10^6 per mouse and the “inhibition of cell influx vs. the vehicle group” value ([2]; 45 mg/kg i.p.) was 55%.

For NC(=O)c1cccc(N)c1 [3-amino-benzamide], the “reduction in infarct size in the heart” value ([1]; single injection 10 mg/kg, one minute before occlusion or before reperfusion) is listed as 32-42%.

For O=C1NCCc2c(OCCCCN3CCCCC3)cccc21 [DPQ, 3,4-dihydro-5-[4-(1-piperidinyl)-butoxy]-1(2H)-isoquinolinone], the “damaged volume (infarct volume)” value ([3]; 5 mg/kg i.p. 2 h before and 2 h after MCA occlusion, control 165.2±34.0) was 106.7±23.2 mm^3, the “damaged volume (infarct volume)” value ([3]; 10 mg/kg i.p. 2 h before and 2 h after MCA occlusion, control 165.2±34.0) was 76.4±16.8 mm^3 and the “damaged volume (infarct volume)” value ([3]; 20 mg/kg i.p. 2 h before and 2 h after MCA occlusion, control 165.2±34.0) was 110.2±42.0 mm^3. For the same compound, the “damaged volume (infarct volume)” value ([3]; 40 mg/kg i.p., no significant difference from control 165.2±34.0) was 135.6±44.8 mm^3 and the IC50 (PARP) was 40 nM.
